The values below are quoted from earlier work in patent US8168241B2, “Performance-enhancing dietary supplement” (Reliv International, Inc., priority 1998, dated 2012).

The conditions of data set [1]: resulting from the ingestion of CLA.
For data set [2] the following is noted: co-administration of piper nigrum extract; double blind studies.

In the case of conjugated linoleic acid [CLA], in data set [1], the “reduction in body fat” value was not above 20%. On to `COC1=C(OC)C(=O)C(C/C=C(\C)CC/C=C(\C)CC/C=C(\C)CC/C=C(\C)CC/C=C(\C)CC/C=C(\C)CC/C=C(\C)CC/C=C(\C)CC/C=C(\C)CCC=C(C)C)=C(C)C1=O` [coenzyme Q10], for which the bioavailability entry in data set [2] was “significantly increased”.
